Experiments:
[1] = target: T1, Amine oxidase [flavin-containing] B (Homo sapiens, UniProt P27338); experiment: Inhibition Assay; settings: pH 7.4; 37 °C
T1 sequence (P27338 whole entry): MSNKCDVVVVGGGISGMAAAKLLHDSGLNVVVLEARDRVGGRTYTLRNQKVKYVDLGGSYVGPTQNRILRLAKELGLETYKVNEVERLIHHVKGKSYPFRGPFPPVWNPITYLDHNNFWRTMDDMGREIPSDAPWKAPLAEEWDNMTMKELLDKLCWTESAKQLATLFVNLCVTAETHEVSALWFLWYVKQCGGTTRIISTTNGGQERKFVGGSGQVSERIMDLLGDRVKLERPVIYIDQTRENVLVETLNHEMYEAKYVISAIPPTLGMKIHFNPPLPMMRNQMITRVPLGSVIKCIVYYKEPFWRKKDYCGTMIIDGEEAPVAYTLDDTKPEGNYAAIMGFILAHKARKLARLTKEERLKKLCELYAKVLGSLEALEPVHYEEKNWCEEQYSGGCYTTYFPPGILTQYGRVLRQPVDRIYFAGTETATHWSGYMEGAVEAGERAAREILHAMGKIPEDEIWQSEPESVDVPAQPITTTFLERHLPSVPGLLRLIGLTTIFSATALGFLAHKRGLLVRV
Source text: (§1) Inhibition studies using recombinant human MAO-A and MAO-B that were obtained from commercial sources (Sigma-Aldrich).

[2] = target: T2, Amine oxidase [flavin-containing] A (Homo sapiens, UniProt P21397); experiment: Inhibition Assay; settings: pH 7.4; 37 °C
T2 sequence (P21397 whole entry): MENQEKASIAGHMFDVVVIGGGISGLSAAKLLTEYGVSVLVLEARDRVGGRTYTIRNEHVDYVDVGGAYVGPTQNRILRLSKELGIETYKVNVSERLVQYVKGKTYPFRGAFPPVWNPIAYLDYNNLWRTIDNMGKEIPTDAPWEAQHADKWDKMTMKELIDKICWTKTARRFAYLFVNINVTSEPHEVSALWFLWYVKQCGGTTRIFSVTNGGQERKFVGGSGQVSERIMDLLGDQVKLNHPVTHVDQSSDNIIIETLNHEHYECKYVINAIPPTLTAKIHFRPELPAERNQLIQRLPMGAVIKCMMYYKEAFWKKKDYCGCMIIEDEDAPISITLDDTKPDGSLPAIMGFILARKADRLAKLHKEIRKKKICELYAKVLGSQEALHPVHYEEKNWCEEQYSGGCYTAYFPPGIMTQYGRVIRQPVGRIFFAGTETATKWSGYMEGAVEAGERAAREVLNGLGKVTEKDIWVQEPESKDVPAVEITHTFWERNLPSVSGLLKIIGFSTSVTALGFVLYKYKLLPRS
Source text: as §1

IC50 [1] [nM] | IC50 [2] [nM] | Compound
85 | 5330 | O=c1ccoc2cc(OCc3ccccc3)ccc12 [C7-substituted chromone derivative, 3a]
115 | 2190 | O=c1ccoc2cc(OCCc3ccccc3)ccc12 [C7-substituted chromone derivative, 3b]
121 | 3080 | O=c1ccoc2cc(OCCCc3ccccc3)ccc12 [C7-substituted chromone derivative, 3c]
– | 1520 | O=c1ccoc2cc(OCc3cccc(Cl)c3)ccc12 [C7-substituted chromone derivative, 3d]
29 | 495 | O=c1ccoc2cc(OCc3ccc(Cl)cc3)ccc12 [C7-substituted chromone derivative, 3e]
14 | 1730 | O=c1ccoc2cc(OCc3cccc(Br)c3)ccc12 [C7-substituted chromone derivative, 3f]
18 | 592 | O=c1ccoc2cc(OCc3ccc(Br)cc3)ccc12 [C7-substituted chromone derivative, 3g]
44 | 2100 | O=c1ccoc2cc(OCc3cccc(F)c3)ccc12 [C7-substituted chromone derivative, 3h]
– | 1170 | O=c1ccoc2cc(OCc3ccc(F)cc3)ccc12 [C7-substituted chromone derivative, 3i]
62 | 8030 | Cc1cccc(COc2ccc3c(=O)ccoc3c2)c1 [C7-substituted chromone derivative, 3j]
75 | 7120 | Cc1ccc(COc2ccc3c(=O)ccoc3c2)cc1 [C7-substituted chromone derivative, 3k]
370 | 784 | N#Cc1cccc(COc2ccc3c(=O)ccoc3c2)c1 [C7-substituted chromone derivative, 3l]
117 | 1570 | N#Cc1ccc(COc2ccc3c(=O)ccoc3c2)cc1 [C7-substituted chromone derivative, 3m]
– | 1970 | O=c1ccoc2cc(OCc3ccc(C(F)(F)F)cc3)ccc12 [C7-substituted chromone derivative, 3n]
317 | 718 | O=c1ccoc2cc(OCCc3ccc(Br)cc3)ccc12 [C7-substituted chromone derivative, 3o]

Source: BindingDB's records for doi:10.1016/j.bioorg.2012.08.003 (North-West University, 2012)
